Columns and labels:
mice [1] = test: Amphetamine-induced hyperlocomotion (open field); type: in vivo; settings: drug 2 amphetamine SC
Procedure: Table 2, below, indicates the locomotor responses of mice treated with various combinations of alpha-2B receptor agonists and the psychostimulant amphetamine. Drug 1 was administered 30 minutes after the animal was placed in the open field. Drug 2 was administered subcutaneously (SC) at 45 minutes after the animal was placed in the open field (15 minutes after drug 1). AUC indicates the total amount of locomotor activity after administration of drug 2. “% decrease activity” indicates the percentage decrease in total activity relative to the Vehicle+Amphetamine group. ° indicates significant difference (P<0.05) relative to Vehicle+Amphetamine treated animals. * indicates significant difference (P<0.05) relative to Vehicle+Vehicle treated animals.
(§1) Amphetamine- or cocaine-induced hyperactivity. Mice were placed in an open field apparatus (FlexField, San Diego Instruments, San Diego, Calif.). After 30 minutes of habituation, they received a vehicle or haloperidol injection or injection of alpha-2B receptor agonist followed by an injection of amphetamine (2 mg/kg, s.c.) or cocaine (10 mg/kg, i.p.) at minute 45. Their activity levels were subsequently measured for another 1 hour post-injection. Total activity over each 5 minute bin (21 total bins) was added to establish activity curve over the 105 minute testing.
(§2) For i.p. administration, the compounds are formulated in H2O with 0.5% DMSO and given in a volume of 1 ml/kg body weight by injecting into the intraperitoneal cavity. For p.o. administration, the compounds are formulated in H2O with 0.5% DMSO and given in a volume of 2 ml/kg body weight using a 25-gauge, 1.5 inch gavage needle that is slowly inserted through the esophagus into the stomach.

mice [2] = test: Cocaine-induced hyperlocomotion (open field); type: in vivo; settings: drug 2 cocaine SC; for % DECREASE ACTIVITY: relative to Vehicle+Cocaine
Procedure: Table 3, below, indicates the locomotor responses of mice treated with various combinations of alpha-2B receptor agonists and the psychostimulant cocaine. Drug 1 was administered 30 minutes after the animal was placed in the open field. Drug 2 was administered subcutaneously (SC) at 45 minutes after the animal was placed in the open field (15 minutes after drug 1). AUC indicates the total amount of locomotor activity after administration of drug 2. “% decrease activity” indicates the percentage decrease in total activity relative to the Vehicle+Cocaine group. ° indicates significant difference (P<0.05) relative to Vehicle+Cocaine treated animals. * indicates significant difference (P<0.05) relative to Vehicle+Vehicle treated animals.
as §1, §2

[3] = tested on: nigrostriatal-lesioned rats; test: Nigrostriatal-lesion-induced rotational behavior following amphetamine administration; type: in vivo; settings: relative to Vehicle+Amphetamine, drug 2 amphetamine SC
Procedure: Table 4, below, indicates the changes in rotational behavior in nigrostriatal-lesioned rats treated with various alpha-2B receptor agonists and the psychostimulant amphetamine. Drug 1 was administered 15 minutes before amphetamine, and 10 minutes post-amphetamine, the animals were placed into the rotometer for 30 or 60 minutes. “% decrease rotations” indicates the percentage decrease in total rotations relative to the Vehicle+Amphetamine group. ^⋄ indicates significant difference (P<0.05) relative to Vehicle+Amphetamine treated animals. * indicates significant difference (P<0.05) relative to Vehicle+Vehicle treated animals.
Amphetamine-induced rotational behavior. Pre-Apomorphine-screened (rotated) rats (with lesions ≧95% DA cell loss) were purchased from Charles Rivers Laboratories. Animals were given ˜4 days to acclimate prior to testing. All animals weighted 250-300 g at the beginning of the study. Animals were treated with various combinations of vehicle or alpha-2B receptor agonist and amphetamine.
Vehicle or alpha-2B receptor agonist was administered (p.o.) 15 minutes before amphetamine (2 mg/kg s.c.). Rotational behavior was assessed 15 minutes post-amphetamine administration and was monitored for 60 minutes using a Rotometer system from San Diego Instruments (San Diego, Calif.).
as §2

alpha-2A receptor = molecular target: T1, alpha-2A receptor (Homo sapiens, UniProt P08913); test: Alpha-2A receptor activity (efficacy relative to brimonidine); type: cell-based; settings: in words; b7: lacks significant activity = less than 40% of the efficacy of brimonidine at alpha-2A
T1 sequence (P08913 1-465): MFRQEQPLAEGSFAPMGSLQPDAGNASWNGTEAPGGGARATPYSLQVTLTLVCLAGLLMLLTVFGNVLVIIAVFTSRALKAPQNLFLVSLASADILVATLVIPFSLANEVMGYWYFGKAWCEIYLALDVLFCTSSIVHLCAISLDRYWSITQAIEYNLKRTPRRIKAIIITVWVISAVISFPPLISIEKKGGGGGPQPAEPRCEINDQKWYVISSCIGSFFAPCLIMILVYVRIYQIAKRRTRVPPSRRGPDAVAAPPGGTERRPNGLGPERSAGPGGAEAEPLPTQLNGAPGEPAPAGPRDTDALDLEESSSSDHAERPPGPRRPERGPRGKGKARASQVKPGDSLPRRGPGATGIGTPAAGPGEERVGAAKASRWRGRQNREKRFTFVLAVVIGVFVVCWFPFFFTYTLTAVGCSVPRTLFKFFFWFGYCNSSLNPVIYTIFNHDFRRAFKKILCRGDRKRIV
Excerpt: The methods of the present invention use alpha-2 agonists lacking significant activity at the alpha-2A receptor subtype. An agonist lacks significant alpha-2A receptor activity if the agonist has less than 40% of the efficacy of brimonidine at the alpha-2A receptor subtype. Compounds of the invention include, therefore, alpha-2B receptor agonists lacking significant alpha-2A activity; alpha 2B/2C receptor agonists lacking significant alpha-2A activity; and alpha-2C receptor agonists lacking significant alpha-2A activity.
Efficacy, also known as intrinsic activity, is a measure of maximal receptor activation achieved by a compound and can be determined using any accepted assay of alpha-adrenergic receptor activation, such as a cAMP or Receptor Selection and Amplification Technology (RSAT). Efficacy is represented as a ratio or percentage of the maximal effect of the drug to the maximal effect of a standard agonist for each receptor subtype. Brimonidine, itself an alpha-2B receptor agonist (it is has 100% the efficacy of brimonidine at the alpha-2B adrenergic receptor), is used as the standard agonist for the alpha-2B adrenergic receptors.
Agonist activity can be characterized using any of a variety of routine assays, including, for example, Receptor Selection and Amplification Technology (RSAT) assays (Messier et al., Pharmacol. Toxicol. 76:308-11 (1995); cyclic AMP assays (Shimizu et al., J. Neurochem. 16:1609-1619 (1969)); and cytosensor microphysiometry assays (Neve et al., J. Biol. Chem. 267:25748-25753 (1992)). Such assays generally are performed using cells that naturally express only a single alpha-adrenergic receptor subtype, or using transfected cells expressing a single recombinant alpha-adrenergic receptor subtype. The adrenergic receptor can be a human receptor or homolog of a human receptor having a similar pharmacology.
The RSAT assay measures receptor-mediated loss of contact inhibition resulting in selective proliferation of receptor-containing cells in a mixed population of confluent cells. The increase in cell number is assessed with an appropriate detectable marker gene such as beta-galactosidase, if desired, in a high throughput or ultra high throughput assay format. Receptors that activate the G protein, Gq, elicit the proliferative response. Alpha-adrenergic receptors, which normally couple to Gi, activate the RSAT response when coexpressed with a hybrid Gq protein containing a Gi receptor recognition domain, designated Gq/i5. Conklin et al., Nature 363:274-6 (1993)).
As an example, an RSAT assay can be performed essentially as follows. NIH-3T3 cells are plated at a density of 2×10^6 cells in 15 cm dishes and maintained in Dulbecco's modified Eagle's medium supplemented with 10% calf serum. One day later, cells are cotransfected by calcium phosphate precipitation with mammalian expression plasmids encoding p-SV-β-galactosidase (5-10 μg), receptor (1-2 μg) and G protein (1-2 μg). Carrier DNA, for example 40 μg salmon sperm DNA, also can be included to increase transfection efficiency. Fresh media is added on the following day; one to two days later, cells are harvested and frozen in 50 assay aliquots. Transfected cells are thawed, and 100 μl of cells added to 100 μl aliquots of compound to be tested, with various concentrations assayed in triplicate, for example, in 96-well plates. Incubation continues for 72 to 96 hours at 37° C. After washing with phosphate-buffered saline, β-galactosidase activity is determined by adding 200 μl of chromogenic substrate (3.5 mM O-nitrophenyl-β-D-galactopyranoside/0.5% NP-40 in phosphate buffered saline), incubating overnight at 30° C., and measuring optical density at 420 nm. The absorbancy is a measure of enzyme activity, which depends on cell number and reflects receptor-mediated cell proliferation. The EC50 and maximal effect (i.e., efficacy) of each drug at each receptor is determined.

## O=C1c2ccccc2CC[C@H]1Cc1c[nH]c(=S)[nH]1 [Compound E]
Mice [1]; drug 1 0.01 mg/kg PO
  % DECREASE ACTIVITY REL TO VEH + AMPH: 15% *
  TOTAL ACTIVITY POST-AMPHETAMINE (AUC): 11419.2 ± 550.4
Mice [1]; drug 1 0.03 mg/kg PO
  % DECREASE ACTIVITY REL TO VEH + AMPH: 58% ^⋄
  TOTAL ACTIVITY POST-AMPHETAMINE (AUC): 5616.8 ± 618.2
Mice [1]; drug 1 0.1 mg/kg PO
  % DECREASE ACTIVITY REL TO VEH + AMPH: 66% ^⋄
  TOTAL ACTIVITY POST-AMPHETAMINE (AUC): 4623.8 ± 1166.7
Mice [1]; drug 1 1 mg/kg PO
  % DECREASE ACTIVITY REL TO VEH + AMPH: 49% ^⋄ *
  TOTAL ACTIVITY POST-AMPHETAMINE (AUC): 6867.3 ± 979.3
Mice [1]; drug 1 10 mg/kg PO
  % DECREASE ACTIVITY REL TO VEH + AMPH: 55% ^⋄
  TOTAL ACTIVITY POST-AMPHETAMINE (AUC): 6026.0 ± 1007.9
Mice [2]; drug 1 0.01 mg/kg PO
  TOTAL ACTIVITY POST-COCAINE (AUC): 5036.5 ± 464.2
  % DECREASE ACTIVITY: 52% ^⋄ *
Mice [2]; drug 1 0.03 mg/kg PO
  TOTAL ACTIVITY POST-COCAINE (AUC): 5033.5 ± 503.8
  % DECREASE ACTIVITY: 52% ^⋄ *
Mice [2]; drug 1 0.1 mg/kg PO
  TOTAL ACTIVITY POST-COCAINE (AUC): 6263.0 ± 436.6
  % DECREASE ACTIVITY: 40% ^⋄ *
Mice [2]; drug 1 0.3 mg/kg PO
  TOTAL ACTIVITY POST-COCAINE (AUC): 3662.1 ± 1458.2
  % DECREASE ACTIVITY: 65% ^⋄
[3]; drug 1 0.3 mg/kg PO
  % DECREASE ROTATIONS: 58% ^⋄ *
alpha-2A receptor
  alpha-2A receptor activity: lack significant alpha-2A receptor activity

## Clc1cccc(CNC2=NCCN2)c1Cl [Compound F]
Mice [1]; drug 1 0.03 mg/kg IP
  % DECREASE ACTIVITY REL TO VEH + AMPH: 26% ^⋄ *
  TOTAL ACTIVITY POST-AMPHETAMINE (AUC): 9933.0 ± 1898.7
Mice [1]; drug 1 0.3 mg/kg IP
  % DECREASE ACTIVITY REL TO VEH + AMPH: 29% ^⋄ *
  TOTAL ACTIVITY POST-AMPHETAMINE (AUC): 9442.3 ± 1306.7
Mice [1]; drug 1 1 mg/kg IP
  % DECREASE ACTIVITY REL TO VEH + AMPH: 45% ^⋄
  TOTAL ACTIVITY POST-AMPHETAMINE (AUC): 7437.8 ± 1812.4
Mice [1]; drug 1 3 mg/kg IP
  % DECREASE ACTIVITY REL TO VEH + AMPH: 62% ^⋄
  TOTAL ACTIVITY POST-AMPHETAMINE (AUC): 5169.0 ± 1481.4
alpha-2A receptor
  alpha-2A receptor activity: lack significant alpha-2A receptor activity

## OCCNC(=S)NCc1cccc(Cl)c1F [Compound A]
Mice [1]; drug 1 0.03 mg/kg IP
  % DECREASE ACTIVITY REL TO VEH + AMPH: 55% ^⋄
  TOTAL ACTIVITY POST-AMPHETAMINE (AUC): 5524.8 ± 624.2
Mice [2]; drug 1 0.03 mg/kg PO
  TOTAL ACTIVITY POST-COCAINE (AUC): 8469 ± 935.01
  % DECREASE ACTIVITY: 19% * ^
Mice [2]; drug 1 0.1 mg/kg PO
  TOTAL ACTIVITY POST-COCAINE (AUC): 6457.67 ± 754.0
  % DECREASE ACTIVITY: 38% ^⋄ *
Mice [2]; drug 1 0.3 mg/kg PO
  TOTAL ACTIVITY POST-COCAINE (AUC): 3543 ± 648.02
  % DECREASE ACTIVITY: 66% ^⋄
[3]; drug 1 0.03 mg/kg PO
  % DECREASE ROTATIONS: 65% ^⋄ *
alpha-2A receptor
  alpha-2A receptor activity: lack significant alpha-2A receptor activity

## O=C(CCCN1CCC(O)(c2ccc(Cl)cc2)CC1)c1ccc(F)cc1 [Haloperidol, reference compound]
Mice [1]; drug 1 0.2 mg/kg IP
  % DECREASE ACTIVITY REL TO VEH + AMPH: 91% ^⋄ *
  TOTAL ACTIVITY POST-AMPHETAMINE (AUC): 1123.2 ± 280.1
